Measurements as given in ChEMBL document CHEMBL4804286, “3-amino-4-(4-(4 (dimethylcarbamoyl) phenyl)-1,4-diazepan-1-yl) thieno [2,3-b] pyridine-2-carboxamide for use in cancer therapy and formulations comprising the same” (2020).
“And” between values parts separate entries of the source, which are not always exact repeats. Equal values may be shown once.

What was measured:
[1] = target: Calcium/calmodulin-dependent protein kinase type 1G (Homo sapiens) (UniProt Q96NX5); test: Inhibition of human CAMK1G assessed as percent of control at 2000 nM by KINOMEscan assay relative to control; parameters: scale not given: the % may be the effect or the level left
[2] = target: Cyclin-G-associated kinase (Homo sapiens) (UniProt O14976); test: Inhibition of human GAK assessed as percent of control at 2000 nM by KINOMEscan assay relative to control; parameters: scale not given: the % may be the effect or the level left
Cyclin-G-associated kinase (Homo sapiens), sequence (O14976 whole entry): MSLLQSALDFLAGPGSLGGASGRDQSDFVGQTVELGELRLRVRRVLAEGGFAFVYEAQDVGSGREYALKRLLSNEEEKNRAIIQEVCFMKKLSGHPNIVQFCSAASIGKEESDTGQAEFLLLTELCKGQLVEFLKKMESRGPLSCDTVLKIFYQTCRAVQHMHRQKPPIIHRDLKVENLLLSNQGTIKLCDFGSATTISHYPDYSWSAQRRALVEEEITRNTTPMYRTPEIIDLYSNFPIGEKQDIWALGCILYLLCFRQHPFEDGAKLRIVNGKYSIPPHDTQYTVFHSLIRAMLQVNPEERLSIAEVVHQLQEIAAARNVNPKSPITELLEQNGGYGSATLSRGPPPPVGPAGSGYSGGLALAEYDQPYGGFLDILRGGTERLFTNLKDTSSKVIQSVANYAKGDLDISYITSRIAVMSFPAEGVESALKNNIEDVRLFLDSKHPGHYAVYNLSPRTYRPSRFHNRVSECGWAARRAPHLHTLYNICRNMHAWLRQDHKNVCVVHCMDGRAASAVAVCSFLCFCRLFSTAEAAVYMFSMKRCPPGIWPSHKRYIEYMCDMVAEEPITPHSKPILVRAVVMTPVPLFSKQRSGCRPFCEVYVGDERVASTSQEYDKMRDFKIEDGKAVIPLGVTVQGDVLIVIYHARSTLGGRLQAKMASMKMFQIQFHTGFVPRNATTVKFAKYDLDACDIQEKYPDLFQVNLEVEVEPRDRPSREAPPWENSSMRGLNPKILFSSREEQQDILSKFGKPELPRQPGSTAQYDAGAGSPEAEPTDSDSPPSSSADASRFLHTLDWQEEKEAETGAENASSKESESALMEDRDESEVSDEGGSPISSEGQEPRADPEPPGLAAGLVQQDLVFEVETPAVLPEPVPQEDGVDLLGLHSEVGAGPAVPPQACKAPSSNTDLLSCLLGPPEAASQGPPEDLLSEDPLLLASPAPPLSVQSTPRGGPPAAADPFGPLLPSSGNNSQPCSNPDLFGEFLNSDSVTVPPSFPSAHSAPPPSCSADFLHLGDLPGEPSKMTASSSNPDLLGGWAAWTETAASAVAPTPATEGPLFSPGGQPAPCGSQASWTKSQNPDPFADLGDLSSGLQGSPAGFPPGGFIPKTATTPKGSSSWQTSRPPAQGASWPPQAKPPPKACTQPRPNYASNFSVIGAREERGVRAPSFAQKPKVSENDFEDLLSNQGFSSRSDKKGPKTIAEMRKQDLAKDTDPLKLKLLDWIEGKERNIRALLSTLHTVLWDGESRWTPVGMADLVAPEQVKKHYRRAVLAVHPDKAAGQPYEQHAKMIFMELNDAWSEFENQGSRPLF

[3] = target: Rhodopsin kinase GRK1 (Homo sapiens) (UniProt Q15835); test: Inhibition of human GRK1 assessed as percent of control at 2000 nM by KINOMEscan assay relative to control; parameters: scale not given: the % may be the effect or the level left
Rhodopsin kinase GRK1 (Homo sapiens), sequence (Q15835 whole entry): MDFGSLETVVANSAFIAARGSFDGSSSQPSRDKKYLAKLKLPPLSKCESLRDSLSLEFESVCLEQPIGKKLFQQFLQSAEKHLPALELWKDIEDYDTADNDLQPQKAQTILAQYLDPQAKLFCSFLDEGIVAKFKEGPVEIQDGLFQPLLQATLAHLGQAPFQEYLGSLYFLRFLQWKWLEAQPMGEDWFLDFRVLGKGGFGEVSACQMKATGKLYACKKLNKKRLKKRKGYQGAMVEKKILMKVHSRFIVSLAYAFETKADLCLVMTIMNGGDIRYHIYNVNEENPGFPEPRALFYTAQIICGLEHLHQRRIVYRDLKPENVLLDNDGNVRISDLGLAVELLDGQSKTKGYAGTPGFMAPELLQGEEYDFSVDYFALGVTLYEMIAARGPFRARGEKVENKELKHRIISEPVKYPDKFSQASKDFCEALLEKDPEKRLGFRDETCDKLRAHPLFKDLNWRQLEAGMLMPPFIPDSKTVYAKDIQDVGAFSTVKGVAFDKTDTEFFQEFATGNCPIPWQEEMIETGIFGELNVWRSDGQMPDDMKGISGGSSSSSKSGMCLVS

[4] = target: Serine/threonine-protein kinase 16 (Homo sapiens) (UniProt O75716); test: Inhibition of human STK16 assessed as percent of control at 2000 nM by KINOMEscan assay relative to control; parameters: scale not given: the % may be the effect or the level left
[5] = target: MAP kinase-interacting serine/threonine-protein kinase 2 (Homo sapiens) (UniProt Q9HBH9); test: Inhibition of human MKNK2 assessed as percent of control at 2000 nM by KINOMEscan assay relative to control; parameters: scale not given: the % may be the effect or the level left
[6] = target: Myotonin-protein kinase (Homo sapiens) (UniProt Q09013); test: Inhibition of human DMPK assessed as percent of control at 2000 nM by KINOMEscan assay relative to control; parameters: scale not given: the % may be the effect or the level left
[7] = target: Cyclin-dependent kinase 8 (Homo sapiens) (UniProt P49336); conditions: INHIBITOR, dose 2000.0 nM
Description: Inhibition of human CDK8 at 2000 nM by KINOMEscan assay

[8] = target: TGF-beta receptor type-2 (Homo sapiens) (UniProt P37173); test: Inhibition of human TGFBR2 assessed as percent of control at 2000 nM by KINOMEscan assay relative to control; parameters: scale not given: the % may be the effect or the level left
[9] = target: 5'-AMP-activated protein kinase catalytic subunit alpha-1 (Homo sapiens) (UniProt Q13131); test: Inhibition of human AMPK-alpha1 assessed as percent of control at 2000 nM by KINOMEscan assay relative to control; parameters: scale not given: the % may be the effect or the level left
5'-AMP-activated protein kinase catalytic subunit alpha-1 (Homo sapiens), sequence (Q13131 whole entry, looked up): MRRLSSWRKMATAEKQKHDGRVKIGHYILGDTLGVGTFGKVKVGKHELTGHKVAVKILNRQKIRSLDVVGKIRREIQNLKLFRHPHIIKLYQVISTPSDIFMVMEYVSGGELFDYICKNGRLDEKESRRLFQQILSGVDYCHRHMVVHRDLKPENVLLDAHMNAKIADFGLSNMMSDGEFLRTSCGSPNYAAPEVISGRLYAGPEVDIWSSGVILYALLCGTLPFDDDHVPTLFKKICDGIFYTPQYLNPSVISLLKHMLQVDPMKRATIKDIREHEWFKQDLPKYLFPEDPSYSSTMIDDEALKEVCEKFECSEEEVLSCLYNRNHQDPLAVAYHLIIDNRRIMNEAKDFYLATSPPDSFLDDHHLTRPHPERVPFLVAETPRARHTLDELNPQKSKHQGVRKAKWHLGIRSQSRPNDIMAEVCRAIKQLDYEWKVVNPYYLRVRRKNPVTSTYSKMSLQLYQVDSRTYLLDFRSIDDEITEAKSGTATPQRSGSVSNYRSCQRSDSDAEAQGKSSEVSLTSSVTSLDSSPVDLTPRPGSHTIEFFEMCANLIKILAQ

[10] = target: Cyclin-dependent kinase 15 (Homo sapiens) (UniProt Q96Q40); test: Inhibition of human PFTAIRE2 assessed as percent of control at 2000 nM by KINOMEscan assay relative to control; parameters: scale not given: the % may be the effect or the level left
[11] = target: Epithelial discoidin domain-containing receptor 1 (Homo sapiens) (UniProt Q08345); test: Inhibition of human DDR1 assessed as percent of control at 2000 nM by KINOMEscan assay relative to control; parameters: scale not given: the % may be the effect or the level left
[12] = tested on: ALK tyrosine kinase receptor (Homo sapiens), Q9UM73 [C1156Y]; test: Inhibition of human ALK C1156Y mutant assessed as percent of control at 2000 nM by KINOMEscan assay relative to control; parameters: scale not given: the % may be the effect or the level left
[13] = target: Casein kinase I isoform alpha-like (Homo sapiens) (UniProt Q8N752); test: Inhibition of human CSNK1A1L assessed as percent of control at 2000 nM by KINOMEscan assay relative to control; parameters: scale not given: the % may be the effect or the level left
[14] = target: Serine/threonine-protein kinase Nek7 (Homo sapiens) (UniProt Q8TDX7); test: Inhibition of human NEK7 assessed as percent of control at 2000 nM by KINOMEscan assay relative to control; parameters: scale not given: the % may be the effect or the level left
Serine/threonine-protein kinase Nek7 (Homo sapiens), sequence (Q8TDX7 whole entry, looked up): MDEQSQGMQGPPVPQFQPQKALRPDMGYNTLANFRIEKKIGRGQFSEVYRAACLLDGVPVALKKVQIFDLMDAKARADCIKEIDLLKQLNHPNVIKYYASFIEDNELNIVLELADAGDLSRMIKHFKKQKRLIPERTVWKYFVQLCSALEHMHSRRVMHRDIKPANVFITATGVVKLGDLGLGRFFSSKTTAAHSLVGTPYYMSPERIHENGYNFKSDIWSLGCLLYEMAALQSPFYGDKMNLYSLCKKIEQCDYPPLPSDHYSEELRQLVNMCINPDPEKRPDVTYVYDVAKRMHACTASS

[15] = target: Bone morphogenetic protein receptor type-2 (Homo sapiens) (UniProt Q13873); test: Inhibition of human BMPR2 assessed as percent of control at 2000 nM by KINOMEscan assay relative to control; parameters: scale not given: the % may be the effect or the level left
Bone morphogenetic protein receptor type-2 (Homo sapiens), sequence (Q13873 whole entry): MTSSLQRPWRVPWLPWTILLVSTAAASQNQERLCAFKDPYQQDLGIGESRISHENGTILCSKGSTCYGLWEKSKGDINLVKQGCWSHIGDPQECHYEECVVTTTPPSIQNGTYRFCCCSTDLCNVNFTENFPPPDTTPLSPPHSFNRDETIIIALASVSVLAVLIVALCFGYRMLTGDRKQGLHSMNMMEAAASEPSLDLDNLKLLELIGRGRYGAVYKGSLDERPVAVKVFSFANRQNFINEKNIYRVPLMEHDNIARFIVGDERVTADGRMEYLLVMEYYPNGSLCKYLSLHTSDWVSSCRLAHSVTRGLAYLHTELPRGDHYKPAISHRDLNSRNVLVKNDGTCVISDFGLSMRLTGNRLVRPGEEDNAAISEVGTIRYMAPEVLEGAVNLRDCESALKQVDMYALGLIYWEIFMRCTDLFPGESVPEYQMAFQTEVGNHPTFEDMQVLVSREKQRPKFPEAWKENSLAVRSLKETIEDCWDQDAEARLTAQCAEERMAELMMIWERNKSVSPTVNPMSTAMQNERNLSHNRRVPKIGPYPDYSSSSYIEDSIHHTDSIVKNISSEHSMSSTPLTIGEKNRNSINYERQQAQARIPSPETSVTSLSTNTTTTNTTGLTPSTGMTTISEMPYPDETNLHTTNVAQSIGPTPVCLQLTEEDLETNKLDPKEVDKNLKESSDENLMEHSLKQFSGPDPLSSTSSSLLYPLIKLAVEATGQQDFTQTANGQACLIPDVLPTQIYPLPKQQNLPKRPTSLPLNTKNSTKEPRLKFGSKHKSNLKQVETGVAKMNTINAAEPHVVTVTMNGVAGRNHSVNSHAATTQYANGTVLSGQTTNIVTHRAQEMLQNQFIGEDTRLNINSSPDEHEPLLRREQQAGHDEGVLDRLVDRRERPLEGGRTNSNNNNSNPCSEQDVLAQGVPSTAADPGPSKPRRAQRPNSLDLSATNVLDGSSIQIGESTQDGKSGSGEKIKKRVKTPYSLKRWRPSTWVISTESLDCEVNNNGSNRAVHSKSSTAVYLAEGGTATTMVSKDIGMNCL

[16] = target: Tyrosine-protein kinase ABL1 (Homo sapiens) (UniProt P00519); test: Inhibition of non-phosphorylated human ABL1 assessed as percent of control at 2000 nM by KINOMEscan assay relative to control; parameters: scale not given: the % may be the effect or the level left
[17] = target: Tyrosine-protein kinase Fer (Homo sapiens) (UniProt P16591); test: Inhibition of human FER assessed as percent of control at 2000 nM by KINOMEscan assay relative to control; parameters: scale not given: the % may be the effect or the level left
[18] = target: Serine/threonine-protein kinase PAK 1 (Homo sapiens) (UniProt Q13153); test: Inhibition of human PAK1 assessed as percent of control at 2000 nM by KINOMEscan assay relative to control; parameters: scale not given: the % may be the effect or the level left
Serine/threonine-protein kinase PAK 1 (Homo sapiens), sequence (Q13153 whole entry): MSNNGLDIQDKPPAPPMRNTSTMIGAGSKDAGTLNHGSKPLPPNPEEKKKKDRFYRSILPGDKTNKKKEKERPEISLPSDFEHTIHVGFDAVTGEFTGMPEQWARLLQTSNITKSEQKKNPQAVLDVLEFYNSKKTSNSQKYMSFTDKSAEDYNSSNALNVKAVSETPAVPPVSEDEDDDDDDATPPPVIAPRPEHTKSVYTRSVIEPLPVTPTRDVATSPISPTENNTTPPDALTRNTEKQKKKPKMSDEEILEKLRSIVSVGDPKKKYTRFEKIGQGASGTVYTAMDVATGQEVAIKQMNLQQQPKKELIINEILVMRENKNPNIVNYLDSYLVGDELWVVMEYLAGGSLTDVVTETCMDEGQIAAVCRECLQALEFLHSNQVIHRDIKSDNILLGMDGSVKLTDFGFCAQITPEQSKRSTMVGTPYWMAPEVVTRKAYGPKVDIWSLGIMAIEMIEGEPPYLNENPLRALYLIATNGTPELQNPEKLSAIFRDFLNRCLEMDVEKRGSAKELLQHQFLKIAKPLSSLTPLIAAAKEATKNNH

[19] = target: Tyrosine-protein kinase receptor TYRO3 (Homo sapiens) (UniProt Q06418); test: Inhibition of human TYRO3 assessed as percent of control at 2000 nM by KINOMEscan assay relative to control; parameters: scale not given: the % may be the effect or the level left
[20] = target: Dual specificity protein kinase CLK1 (Homo sapiens) (UniProt P49759); test: Inhibition of human CLK1 assessed as percent of control at 2000 nM by KINOMEscan assay relative to control; parameters: scale not given: the % may be the effect or the level left
[21] = target: Phosphatidylinositol 4-phosphate 5-kinase type-1 alpha (Homo sapiens) (UniProt Q99755); test: Inhibition of human PIP5K1A assessed as percent of control at 2000 nM by KINOMEscan assay relative to control; parameters: scale not given: the % may be the effect or the level left
[22] = target: Serine/threonine-protein kinase SIK2 (Homo sapiens) (UniProt Q9H0K1); test: Inhibition of human SIK2 assessed as percent of control at 2000 nM by KINOMEscan assay relative to control; parameters: scale not given: the % may be the effect or the level left
[23] = target: Proto-oncogene tyrosine-protein kinase ROS (Homo sapiens) (UniProt P08922); test: Inhibition of human ROS1 assessed as percent of control at 2000 nM by KINOMEscan assay relative to control; parameters: scale not given: the % may be the effect or the level left
[24] = target: Serine/threonine-protein kinase NIM1 (Homo sapiens) (UniProt Q8IY84); test: Inhibition of human NIM1 assessed as percent of control at 2000 nM by KINOMEscan assay relative to control; parameters: scale not given: the % may be the effect or the level left
Serine/threonine-protein kinase NIM1 (Homo sapiens), sequence (Q8IY84 whole entry): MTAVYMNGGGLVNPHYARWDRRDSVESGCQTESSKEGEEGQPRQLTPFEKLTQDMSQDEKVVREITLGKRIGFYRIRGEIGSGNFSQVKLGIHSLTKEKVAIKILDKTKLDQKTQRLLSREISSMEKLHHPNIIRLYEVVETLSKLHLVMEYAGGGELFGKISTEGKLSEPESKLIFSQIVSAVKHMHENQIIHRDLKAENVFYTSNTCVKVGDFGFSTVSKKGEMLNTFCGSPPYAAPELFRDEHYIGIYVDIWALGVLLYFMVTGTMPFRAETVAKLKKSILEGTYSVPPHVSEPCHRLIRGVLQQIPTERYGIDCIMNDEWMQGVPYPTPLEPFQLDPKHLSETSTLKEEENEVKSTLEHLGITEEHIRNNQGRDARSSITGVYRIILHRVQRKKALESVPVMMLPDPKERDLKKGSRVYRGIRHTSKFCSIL

With `CN(C)C(=O)c1ccc(N2CCCN(c3ccnc4sc(C(N)=O)c(N)c34)CC2)cc1` the Activity [1] was 99%, the Activity [2] was 88% and 94% and the Activity [3] was 98% and 81%. The Activity [4] was 80% and 87%, the Activity [5] was 83% and 69% and the Activity [6] was 97%. The inhibition [7] was over 65%, the Activity [8] was 100% and the Activity [9] was 100%. For the same compound, the Activity [10] was 100% and 80%, the Activity [11] was 82% and 90% and the Activity [12] was 100% and 78%. The Activity [13] was 67%, the Activity ([13]; INHIBITOR) was 37% and the Activity [14] was 100% and 86%. The Activity [15] was 79% and 88%, the Activity [16] was 95% and 78% and the Activity [17] was 99% and 100%. The Activity [18] was 96% and 92%, the Activity [19] was 100% and the Activity [20] was 88% and 68%. The Activity [21] was 100%, the Activity [22] was 96% and 100% and the Activity [23] was 95% and 100%. For the same compound, the Activity [24] was 56% and 78%.
